ChEMBL document CHEMBL1201862, “PubChem BioAssay data set” (2004)
Active and inactive are the calls of the source.

Key:
[1] = biological target: T1, High affinity choline transporter 1 (Homo sapiens, UniProt Q9GZV3); experiment: human choline transporter blockers, potency – cell-based, 5-point CRC, membrane potential dye, dose response (AID 504840); type: functional
T1 sequence (Q9GZV3 whole entry): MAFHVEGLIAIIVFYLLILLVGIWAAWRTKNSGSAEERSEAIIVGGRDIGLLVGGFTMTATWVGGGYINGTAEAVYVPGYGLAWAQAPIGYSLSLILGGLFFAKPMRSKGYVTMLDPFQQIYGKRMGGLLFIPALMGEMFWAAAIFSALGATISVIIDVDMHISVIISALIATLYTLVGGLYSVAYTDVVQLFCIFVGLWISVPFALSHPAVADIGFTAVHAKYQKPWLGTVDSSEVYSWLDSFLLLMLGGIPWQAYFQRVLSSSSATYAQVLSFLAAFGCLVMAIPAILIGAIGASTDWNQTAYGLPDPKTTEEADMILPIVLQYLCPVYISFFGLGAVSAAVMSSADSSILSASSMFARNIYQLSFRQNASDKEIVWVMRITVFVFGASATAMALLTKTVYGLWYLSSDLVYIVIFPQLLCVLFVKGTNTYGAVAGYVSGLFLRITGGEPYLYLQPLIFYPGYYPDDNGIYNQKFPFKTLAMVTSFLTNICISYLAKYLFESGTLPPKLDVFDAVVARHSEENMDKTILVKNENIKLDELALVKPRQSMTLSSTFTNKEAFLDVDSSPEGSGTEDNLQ

[2] = NIH3T3 cell viability loss – ATP luminescence, mouse fibroblasts, counter-screen, dose response (AID 2010); type: functional, cell-based;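 note: cells exposed to compound for about 90 hours before reading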
Protein skinhead-1 = biological target: T2, Protein skinhead-1 (Caenorhabditis elegans, UniProt P34707); type: functional
T2 sequence (P34707 whole entry): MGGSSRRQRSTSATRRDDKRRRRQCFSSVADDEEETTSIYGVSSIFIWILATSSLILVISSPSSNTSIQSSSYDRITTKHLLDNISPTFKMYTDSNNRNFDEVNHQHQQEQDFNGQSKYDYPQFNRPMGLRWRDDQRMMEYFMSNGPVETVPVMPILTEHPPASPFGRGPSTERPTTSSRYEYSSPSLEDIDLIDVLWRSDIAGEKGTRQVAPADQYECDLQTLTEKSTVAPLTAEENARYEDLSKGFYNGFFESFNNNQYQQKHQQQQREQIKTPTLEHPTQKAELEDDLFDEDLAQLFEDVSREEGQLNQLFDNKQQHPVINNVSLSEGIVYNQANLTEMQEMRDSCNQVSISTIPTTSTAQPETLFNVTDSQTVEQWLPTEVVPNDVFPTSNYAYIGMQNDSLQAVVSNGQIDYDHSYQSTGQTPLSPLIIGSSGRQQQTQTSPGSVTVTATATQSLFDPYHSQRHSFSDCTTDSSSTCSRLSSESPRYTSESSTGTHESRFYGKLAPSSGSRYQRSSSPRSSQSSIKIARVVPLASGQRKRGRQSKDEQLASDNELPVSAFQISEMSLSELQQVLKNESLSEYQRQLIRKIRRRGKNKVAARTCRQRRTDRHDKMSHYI

[3] = Trypanosoma cruzi growth suppression in host cells – NIH3T3 host cells, beta-gal luminescence, confirmation (AID 2044); type: functional, cell-based;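 note: intracellular parasites grown in NIH/3T3 mouse fibroblasts as host cells; luminescent beta-galactosidase reporter signal from transgenic T. cruzi replicating inside host cells; inhibitors lower the luminescence signal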
[4] = biological target: T3, DNA repair protein RAD52 homolog (Homo sapiens, UniProt P43351); type: functional, biochemical
T3 sequence (P43351 whole entry): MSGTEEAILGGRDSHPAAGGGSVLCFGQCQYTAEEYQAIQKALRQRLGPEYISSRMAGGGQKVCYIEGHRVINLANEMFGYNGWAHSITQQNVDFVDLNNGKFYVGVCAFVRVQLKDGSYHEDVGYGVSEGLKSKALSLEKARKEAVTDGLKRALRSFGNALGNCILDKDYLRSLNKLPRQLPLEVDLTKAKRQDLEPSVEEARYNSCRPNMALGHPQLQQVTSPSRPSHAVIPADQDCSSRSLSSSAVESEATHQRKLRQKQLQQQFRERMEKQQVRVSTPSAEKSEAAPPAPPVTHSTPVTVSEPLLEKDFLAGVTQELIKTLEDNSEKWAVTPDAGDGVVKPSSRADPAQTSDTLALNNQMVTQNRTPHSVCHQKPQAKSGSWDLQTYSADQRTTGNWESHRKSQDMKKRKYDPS

[5] = biological target: T4, DNA repair and recombination protein RAD54-like (Homo sapiens, UniProt Q92698); experiment: RAD54 Holliday junction migration blockers – biochemical, fluorescence, cherry-picked samples, dose series, confirmation (AID 651657); type: functional
T4 sequence (Q92698 whole entry): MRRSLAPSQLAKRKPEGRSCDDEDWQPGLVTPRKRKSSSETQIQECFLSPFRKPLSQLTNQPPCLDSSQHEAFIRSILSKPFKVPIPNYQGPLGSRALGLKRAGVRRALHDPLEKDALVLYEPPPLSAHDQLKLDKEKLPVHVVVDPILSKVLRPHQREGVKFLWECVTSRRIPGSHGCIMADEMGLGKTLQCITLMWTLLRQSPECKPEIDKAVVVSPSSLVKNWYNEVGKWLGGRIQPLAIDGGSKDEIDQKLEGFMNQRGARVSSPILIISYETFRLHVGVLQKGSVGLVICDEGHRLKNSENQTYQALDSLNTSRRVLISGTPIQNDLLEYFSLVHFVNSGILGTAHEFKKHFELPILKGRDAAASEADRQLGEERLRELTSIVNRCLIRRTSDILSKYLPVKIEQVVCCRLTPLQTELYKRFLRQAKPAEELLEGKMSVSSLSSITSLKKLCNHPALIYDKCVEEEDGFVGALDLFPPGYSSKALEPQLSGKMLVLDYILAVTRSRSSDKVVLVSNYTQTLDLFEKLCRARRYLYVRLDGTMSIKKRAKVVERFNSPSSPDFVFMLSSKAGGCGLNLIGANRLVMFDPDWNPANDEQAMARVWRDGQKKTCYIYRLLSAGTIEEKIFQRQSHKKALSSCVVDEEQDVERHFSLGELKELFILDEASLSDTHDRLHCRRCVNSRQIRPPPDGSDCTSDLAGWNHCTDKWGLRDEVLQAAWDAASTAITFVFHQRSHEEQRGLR

Paired box protein Pax-8 = Paired box protein Pax-8 (Homo sapiens, UniProt Q06710); experiment: PAX8 transcriptional activity inhibition in RMG-I – RMG-I cells, luciferase, cherry-pick, dose response (AID 687027); type: functional, cell-based;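 note: luciferase reporter driven by Pax8 target thyroperoxidase promoter measured by SteadyGlo luminescence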
[6] = Luminescence Cell-Based Dose Retest to Confirm Inhibitors of Cancer Stem Cells. [Related pubchem assays (depositor defined):AID2717, AID2721]; type: functional; settings: Homo sapiens
[7] = microbe, parasite or virus in culture; type: functional; settings: Mycobacterium tuberculosis
[8] = Fluorescence-based cell-based high throughput dose response assay for inhibitors of the interaction of nucleotide-binding oligomerization domain containing 2 (NOD2) and the receptor-interacting serine-threonine kinase 2 (RIPK2).; type: functional; settings: Homo sapiens
cells [9] = type: functional, cell-based
INS1 = experiment: INS-1E survival protection against cytokine death – cell-based, luminescence, retest, dose response (AID 449756); type: functional; settings: Rattus norvegicus;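 note: cell death triggered by IL-1 beta plus TNF-alpha plus IFN-gamma mixture; protective hits raise ATP signal compared with cytokine alone wells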
[10] = biological target: T5, Short transient receptor potential channel 4 (Mus musculus, UniProt Q9QUQ5); experiment: block of DAMGO-driven TRPC4 calcium entry – cell-based, HEK293 TRPC4/mu-opioid, Fluo-4 calcium, dose response (AID 434942); type: functional;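 note: potency of inhibitors blocking the TRPC4 calcium response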
T5 sequence (Q9QUQ5 whole entry): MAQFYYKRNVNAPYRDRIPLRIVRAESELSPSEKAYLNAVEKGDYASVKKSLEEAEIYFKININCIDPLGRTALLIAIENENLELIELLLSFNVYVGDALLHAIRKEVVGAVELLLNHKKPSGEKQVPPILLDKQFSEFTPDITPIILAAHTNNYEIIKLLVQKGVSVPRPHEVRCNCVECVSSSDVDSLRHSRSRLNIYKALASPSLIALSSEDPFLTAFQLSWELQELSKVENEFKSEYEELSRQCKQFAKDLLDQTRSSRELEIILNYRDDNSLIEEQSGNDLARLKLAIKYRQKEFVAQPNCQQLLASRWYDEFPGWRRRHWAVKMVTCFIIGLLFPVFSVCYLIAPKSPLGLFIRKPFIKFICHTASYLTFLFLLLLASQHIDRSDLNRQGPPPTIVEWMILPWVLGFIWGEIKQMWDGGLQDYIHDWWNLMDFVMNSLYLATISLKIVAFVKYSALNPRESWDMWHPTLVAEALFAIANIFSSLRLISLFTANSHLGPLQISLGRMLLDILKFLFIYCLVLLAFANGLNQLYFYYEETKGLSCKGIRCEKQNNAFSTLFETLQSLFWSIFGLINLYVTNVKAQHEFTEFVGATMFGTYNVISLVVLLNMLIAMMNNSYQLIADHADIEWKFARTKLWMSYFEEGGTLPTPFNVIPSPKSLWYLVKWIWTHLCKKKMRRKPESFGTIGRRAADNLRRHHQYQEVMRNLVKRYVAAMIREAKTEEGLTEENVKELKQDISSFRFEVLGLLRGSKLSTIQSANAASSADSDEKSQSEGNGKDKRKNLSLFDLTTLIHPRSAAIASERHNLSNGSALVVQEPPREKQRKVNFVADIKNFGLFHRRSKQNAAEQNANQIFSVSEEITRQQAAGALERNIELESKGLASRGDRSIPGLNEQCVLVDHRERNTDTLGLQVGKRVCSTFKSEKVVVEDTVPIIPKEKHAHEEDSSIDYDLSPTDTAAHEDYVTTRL

cells [11] = type: functional, cell-based; remark: listed apart in the source
[12] = biological target: T6, Rac GTPase-activating protein 1 (Homo sapiens, UniProt Q9H0H5); experiment: blockers of MgcRacGAP-driven Rac1 GTP hydrolysis – biochemical, ADP Hunter fluorescence, primary and confirmatory, confirmation (AID 624330); type: functional
T6 sequence (Q9H0H5 whole entry): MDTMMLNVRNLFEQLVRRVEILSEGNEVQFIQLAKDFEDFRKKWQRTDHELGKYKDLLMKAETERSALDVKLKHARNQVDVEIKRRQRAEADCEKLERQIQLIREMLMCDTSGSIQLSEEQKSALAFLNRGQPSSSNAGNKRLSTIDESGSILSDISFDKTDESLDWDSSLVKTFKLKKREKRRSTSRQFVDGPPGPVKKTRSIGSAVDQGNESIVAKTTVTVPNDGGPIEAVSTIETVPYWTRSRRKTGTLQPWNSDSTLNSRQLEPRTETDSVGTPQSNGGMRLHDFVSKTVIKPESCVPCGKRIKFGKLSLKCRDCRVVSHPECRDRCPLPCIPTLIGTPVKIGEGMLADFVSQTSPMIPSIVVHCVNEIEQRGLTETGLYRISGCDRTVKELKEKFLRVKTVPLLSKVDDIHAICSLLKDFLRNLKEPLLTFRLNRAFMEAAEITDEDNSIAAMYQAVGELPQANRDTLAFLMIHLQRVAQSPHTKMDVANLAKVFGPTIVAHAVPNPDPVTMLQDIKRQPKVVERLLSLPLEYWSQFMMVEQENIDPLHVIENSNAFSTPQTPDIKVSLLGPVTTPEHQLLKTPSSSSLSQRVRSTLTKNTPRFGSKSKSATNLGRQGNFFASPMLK

Hexokinase = biological target: T7, Hexokinase (Trypanosoma brucei, UniProt Q38C41); experiment: Confirmation assay for inhibitors of Trypanosoma brucei hexokinase 1-Analogue-first series. [Related pubchem assays (depositor defined):AID1430, AID1632, AID2516, AID2560, AID2579, AID2600, AID449725, AID492951]; type: functional
T7 sequence (Q38C41 whole entry): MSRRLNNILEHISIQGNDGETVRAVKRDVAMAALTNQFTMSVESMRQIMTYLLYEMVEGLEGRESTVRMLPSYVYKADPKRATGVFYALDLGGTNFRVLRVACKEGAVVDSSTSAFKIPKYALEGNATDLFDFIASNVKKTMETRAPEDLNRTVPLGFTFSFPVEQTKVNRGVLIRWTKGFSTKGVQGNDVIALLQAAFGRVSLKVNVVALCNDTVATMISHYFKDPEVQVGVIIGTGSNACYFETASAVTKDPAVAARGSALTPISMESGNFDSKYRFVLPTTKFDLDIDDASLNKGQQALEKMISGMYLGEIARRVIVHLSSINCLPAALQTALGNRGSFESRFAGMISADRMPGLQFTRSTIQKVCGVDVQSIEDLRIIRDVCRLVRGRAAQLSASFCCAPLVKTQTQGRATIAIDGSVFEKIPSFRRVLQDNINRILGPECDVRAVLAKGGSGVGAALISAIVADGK

[13] = viability loss in HeLa cells – cytotoxicity control for MgcRacGAP inhibitor project, dose response (AID 624300); type: functional
[14] = biological target: Glucose-6-phosphate 1-dehydrogenase (Homo sapiens, UniProt P11413); experiment: inhibition of Homo sapiens G6PD, dose series – biochemical, fluorescence, selectivity assay for P. falciparum G6PD inhibitor project, dose response (AID 504792); type: functional
Glucose-6-phosphate 1-dehydrogenase, sequence (P11413 whole entry): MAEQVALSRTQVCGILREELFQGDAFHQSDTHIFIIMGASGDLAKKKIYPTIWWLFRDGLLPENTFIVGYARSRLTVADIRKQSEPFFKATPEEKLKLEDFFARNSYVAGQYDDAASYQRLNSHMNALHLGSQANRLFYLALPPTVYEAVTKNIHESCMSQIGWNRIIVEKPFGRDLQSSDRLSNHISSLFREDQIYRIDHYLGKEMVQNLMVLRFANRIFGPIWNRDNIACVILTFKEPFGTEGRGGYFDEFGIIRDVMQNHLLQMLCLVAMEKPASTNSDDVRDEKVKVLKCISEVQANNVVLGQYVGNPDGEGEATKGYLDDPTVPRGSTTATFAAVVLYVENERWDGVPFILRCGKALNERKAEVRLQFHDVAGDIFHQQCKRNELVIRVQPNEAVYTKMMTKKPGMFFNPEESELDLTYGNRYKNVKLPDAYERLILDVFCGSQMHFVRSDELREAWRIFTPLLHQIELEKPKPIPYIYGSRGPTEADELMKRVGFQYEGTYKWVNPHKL

Paired box protein Pax-8, sequence (Q06710 whole entry): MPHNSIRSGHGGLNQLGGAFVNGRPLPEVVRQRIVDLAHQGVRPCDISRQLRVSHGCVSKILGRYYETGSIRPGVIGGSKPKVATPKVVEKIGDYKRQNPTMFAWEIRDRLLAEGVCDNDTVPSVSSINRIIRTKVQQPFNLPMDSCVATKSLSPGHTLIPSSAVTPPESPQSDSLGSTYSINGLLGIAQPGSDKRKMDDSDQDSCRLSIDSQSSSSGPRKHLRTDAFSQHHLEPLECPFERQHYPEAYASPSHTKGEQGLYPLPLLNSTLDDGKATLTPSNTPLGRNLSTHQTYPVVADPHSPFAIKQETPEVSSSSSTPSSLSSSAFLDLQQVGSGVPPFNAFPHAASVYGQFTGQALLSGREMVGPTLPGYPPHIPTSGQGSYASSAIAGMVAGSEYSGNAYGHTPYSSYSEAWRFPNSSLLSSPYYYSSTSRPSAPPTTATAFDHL

Compound	EC50 [2]	EC50 [3]	AC50 [4]	AC50 [5]	IC50 [12]	CC50 [13]	further results
CCN1CCN(c2cc(C)c3cc(NC(=S)N4CCCCC4)ccc3n2)CC1	> 60 µM (not active)	2.28 µM (active)	14.1 µM (active)	100 µM (inactive)			IC50 [1]: 12.6 µM (active); IC50 (Protein skinhead-1): > 100 µM (inactive)
CN1CCN(c2ccc(S(=O)(=O)N3CCCCC3)cc2NC(=O)/C=C/c2ccc(Cl)c([N+](=O)[O-])c2)CC1	> 60 µM (not active)	1.85 µM (active)					AC50 (Paired box protein Pax-8): 12.6 µM (active); AC50 [6]: 5.48 µM (active); CC50 [7]: 23.3 µM (active); IC50 [8]: 6.18 µM (active)
c1ccc(CNc2c3ccccc3nc3ccccc23)cc1	8.87 µM (active)	0.931 µM (active)	12.1 µM (active)	5.21 µM (active)			EC50 (cells [9]): > 350 µM (not active); AC50 (INS1): 3.79 µM (active); EC50 [10]: 1.33 µM (active); EC50 (cells [11]): > 350 µM (not active)
O=c1c2ccccc2sn1-c1ccccc1F					41 µM (active)	72.2 µM (active)	IC50 (Hexokinase): 2.26 µM (active); IC50 [14]: 17.8 µM (active)
Cc1cc(-c2ccccc2)nc(N/N=C/c2ccc(N(C)C)cc2)n1					74.7 µM (active)	100 µM (active)	
